Test results published in patent US12630719B2, “Fluorescent acridinium salts, synthesis thereof and use for detection of cardiolipin” (LATVIAN INSTITUTE OF ORGANIC SYNTHESIS, priority 2019, dated 2026).

Assay: Stability of fluorescence during experiments
Type: physicochemical
Conditions: in 30 minutes
Text: (§1) Besides, NAO fluorescence intensity loss during interaction of DOPC was detected at 5.6% level.
For CCCCCCCCC[n+]1c2cc(N(C)C)ccc2cc2ccc(N(C)C)cc21 [NAO, 10-N-nonyl acridine orange, reference compound], the “fluorescence intensity drop during experiments” value was 15.5%. With C[Si](C)(C)CCC[n+]1c2cc(N3CCC3)ccc2cc2ccc(N3CCC3)cc21.[I-] [Compound I-5, 3,6-di(azetidin-1-yl)-10-(3-(trimethylsilyl)propyl)acridin-10-ium iodide] the “fluorescence intensity drop during experiments” value was “remaining the same”.

Assay: not given
Conditions: decrease of green fluorescence in the presence of CL; cited from earlier work
In the case of CCCCCCCCC[n+]1c2cc(N(C)C)ccc2cc2ccc(N(C)C)cc21 [NAO, 10-N-nonyl acridine orange, reference compound], the “CL content that can be quantitatively analyzed” value is given as 0.2 to 10 µM.

Assay: Fluorescence intensity on interaction with CL/DOPC liposomes
Type: binding
Conditions: CL/DOPC liposomes (3:1), end value of the drop
Description: (§2) Liposomes preparation. Vesicles were prepared by classic thin film method. […] Obtained large multilamellar liposomes were sonicated in a bath-type sonicator at room temperature for 30 min following by extrusion through a 100 nm polycarbonate filter for 21 times. The quality of the resulting small unilamellar vesicles was monitored by dynamic light scattering (DLS) technique. These stock solutions were diluted 5-fold to acquire 2nd stock solutions that were used in the fluorometric experiments.
In the case of CCCCCCCCC[n+]1c2cc(N(C)C)ccc2cc2ccc(N(C)C)cc21 [NAO, 10-N-nonyl acridine orange, reference compound], the “fluorescence intensity after interaction with CL/DOPC liposomes” value is reported as 1260 a.u. With C[Si](C)(C)CCC[n+]1c2cc(N3CCC3)ccc2cc2ccc(N3CCC3)cc21.[I-] [Compound I-5, 3,6-di(azetidin-1-yl)-10-(3-(trimethylsilyl)propyl)acridin-10-ium iodide] the “fluorescence intensity after interaction with CL/DOPC liposomes” value was 6600 a.u.

Same assay, conditions: start value of the drop
With CCCCCCCCC[n+]1c2cc(N(C)C)ccc2cc2ccc(N(C)C)cc21 [NAO, 10-N-nonyl acridine orange, reference compound] the “fluorescence intensity before interaction with CL/DOPC liposomes” value was 13300 a.u. For C[Si](C)(C)CCC[n+]1c2cc(N3CCC3)ccc2cc2ccc(N3CCC3)cc21.[I-] [Compound I-5, 3,6-di(azetidin-1-yl)-10-(3-(trimethylsilyl)propyl)acridin-10-ium iodide], the “fluorescence intensity before interaction with CL/DOPC liposomes” value was 65800 a.u.

Assay: Photo-physical properties in aqueous HEPES buffer solution
Type: physicochemical
Conditions: aqueous HEPES buffer 20 mM, pH 7.4
Description: Photo-physical properties of I-1-I-5 was measured in aqueous HEPES [4-(2-hydroxyethyl)piperazine-1-ethanesulfonic acid] buffer solution (20 mM, pH 7.4); NAO bromide was used as reference compound. Similar to NAO, derivatives I-1-I-5 have absorption maxima at 494-498 nm, and emission maxima at 528-529 nm (Table 1). […] Moreover, the trimethylsilylpropyl substituent in position 10 improved PLQY up to 60.7% (I-5). […] The introduction of longer alkyl chains such as nonyl and dodecyl led to PLQY decrease.
With C[n+]1c2cc(N3CCC3)ccc2cc2ccc(N3CCC3)cc21.[I-] [Compound I-1, 3,6-di(azetidin-1-yl)-10-methylacridin-10-ium iodide] the “Φ (PLQY, photoluminescence quantum yield)” value was 59.9%, the λabs was 497 nm and the λem was 529 nm. With CCCCCCCCC[n+]1c2cc(N3CCC3)ccc2cc2ccc(N3CCC3)cc21.[I-] [Compound I-3, 3,6-di(azetidin-1-yl)-10-nonylacridin-10-ium iodide] the “Φ (PLQY, photoluminescence quantum yield)” value was 47.9%, the λabs was 498 nm and the λem was 529 nm. With CCCCCCCCC[n+]1c2cc(N(C)C)ccc2cc2ccc(N(C)C)cc21 [NAO, 10-N-nonyl acridine orange, reference compound] the “Φ (PLQY, photoluminescence quantum yield)” value was 15.5%, the λabs was 498 nm and the λem was 528 nm. In the case of C[Si](C)(C)CCC[n+]1c2cc(N3CCC3)ccc2cc2ccc(N3CCC3)cc21.[I-] [Compound I-5, 3,6-di(azetidin-1-yl)-10-(3-(trimethylsilyl)propyl)acridin-10-ium iodide], the “Φ (PLQY, photoluminescence quantum yield)” value is reported as 60.7%, the λabs is reported as 497 nm and the λem is reported as 529 nm. In the case of CCCCCCCCCCCC[n+]1c2cc(N3CCC3)ccc2cc2ccc(N3CCC3)cc21.[I-] [Compound I-4, 3,6-di(azetidin-1-yl)-10-dodecylacridin-10-ium iodide], the “Φ (PLQY, photoluminescence quantum yield)” value is reported as 16.1%, the λabs is reported as 494 nm and the λem is reported as 528 nm. For [2H]C([2H])([2H])[n+]1c2cc(N3CCC3)ccc2cc2ccc(N3CCC3)cc21.[I-] [Compound I-2, 3,6-di(azetidin-1-yl)-10-(methyl-d3)acridin-10-ium iodide], the “Φ (PLQY, photoluminescence quantum yield)” value was 61.5%, the λabs was 497 nm and the λem was 529 nm.

Assay: Titration with cardiolipin, linear regression curve
Type: binding
Conditions: not given
Description: as §2
For CCCCCCCCC[n+]1c2cc(N(C)C)ccc2cc2ccc(N(C)C)cc21 [NAO, 10-N-nonyl acridine orange, reference compound], the “linear slope of the titration curve” value was −1222±49. In the case of C[Si](C)(C)CCC[n+]1c2cc(N3CCC3)ccc2cc2ccc(N3CCC3)cc21.[I-] [Compound I-5, 3,6-di(azetidin-1-yl)-10-(3-(trimethylsilyl)propyl)acridin-10-ium iodide], the “linear slope of the titration curve” value is reported as −6259±250.

Assay: Fluorescence intensity in the presence of DOPC liposomes without cardiolipin (selectivity)
Type: binding
Conditions: not given
Description: as §1, §2
In the case of CCCCCCCCC[n+]1c2cc(N(C)C)ccc2cc2ccc(N(C)C)cc21 [NAO, 10-N-nonyl acridine orange, reference compound], the “fluorescence intensity drop in the presence of DOPC liposomes” value is reported as 5.6%. With C[Si](C)(C)CCC[n+]1c2cc(N3CCC3)ccc2cc2ccc(N3CCC3)cc21.[I-] [Compound I-5, 3,6-di(azetidin-1-yl)-10-(3-(trimethylsilyl)propyl)acridin-10-ium iodide] the “fluorescence intensity drop in the presence of DOPC liposomes” value was 7.7%.
